For 21 compounds, IC50, stress-induced hyperthermia and melting point results are on record in patent US20080269250A1, “Pyrrolidine and Piperidine Acetylene Derivatives for Use as Mglur5 Antagonists” (priority 2005, published 2008).

The target in one series is T1, hmGluR5 (Homo sapiens, UniProt P41594).
T1 construct: expressed in transfected cells
T1 sequence (P41594 21-1180 isoform P41594-2 limits assumed): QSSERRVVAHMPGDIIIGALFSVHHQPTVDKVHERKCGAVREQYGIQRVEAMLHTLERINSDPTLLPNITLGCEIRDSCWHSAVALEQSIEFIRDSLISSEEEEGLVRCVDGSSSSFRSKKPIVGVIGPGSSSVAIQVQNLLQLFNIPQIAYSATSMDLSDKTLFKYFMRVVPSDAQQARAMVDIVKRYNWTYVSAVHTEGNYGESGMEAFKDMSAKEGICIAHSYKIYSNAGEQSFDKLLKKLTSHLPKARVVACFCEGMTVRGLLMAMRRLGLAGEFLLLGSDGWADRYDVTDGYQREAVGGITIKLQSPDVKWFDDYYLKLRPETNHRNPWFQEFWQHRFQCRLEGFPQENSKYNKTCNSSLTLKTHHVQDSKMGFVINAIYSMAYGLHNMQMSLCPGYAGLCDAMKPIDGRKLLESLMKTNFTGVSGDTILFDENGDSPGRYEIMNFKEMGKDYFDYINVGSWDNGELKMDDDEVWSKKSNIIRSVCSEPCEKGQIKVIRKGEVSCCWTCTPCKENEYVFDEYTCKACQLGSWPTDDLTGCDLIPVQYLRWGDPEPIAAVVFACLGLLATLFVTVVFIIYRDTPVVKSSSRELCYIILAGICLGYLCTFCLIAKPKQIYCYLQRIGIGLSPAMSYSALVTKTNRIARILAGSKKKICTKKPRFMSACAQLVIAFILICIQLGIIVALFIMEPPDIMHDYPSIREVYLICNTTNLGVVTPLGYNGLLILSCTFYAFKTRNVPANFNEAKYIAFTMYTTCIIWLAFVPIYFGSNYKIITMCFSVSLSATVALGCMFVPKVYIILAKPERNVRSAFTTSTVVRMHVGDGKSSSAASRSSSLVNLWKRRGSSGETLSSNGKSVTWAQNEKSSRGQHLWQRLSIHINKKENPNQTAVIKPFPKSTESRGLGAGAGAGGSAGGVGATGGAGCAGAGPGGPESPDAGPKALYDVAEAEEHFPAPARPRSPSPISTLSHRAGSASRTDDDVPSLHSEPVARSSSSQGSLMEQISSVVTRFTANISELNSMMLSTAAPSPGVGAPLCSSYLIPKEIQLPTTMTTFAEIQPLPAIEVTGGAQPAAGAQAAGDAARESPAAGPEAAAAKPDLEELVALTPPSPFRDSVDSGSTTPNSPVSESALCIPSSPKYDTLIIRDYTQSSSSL
The series can be described thus: inhibition of quinqualate-induced inositol phosphate turnover in hmGluR5 expressing cells. The series is classed as cell-based. The settings on record: read-out: IC50 concentration, inhibition of quinqualate-induced inositol phosphate turnover. From the text:
This can be determined in vitro for example at recombinant human metabotropic glutamate receptors, especially PLC-coupled subtypes thereof such as mGluRs, using different procedures like, for example, measurement of the inhibition of the agonist induced elevation of intracellular Ca^2+ concentration in accordance with L. P. Daggett et al., Neuropharm. Vol. 34, pages 871-886 (1995), P. J. Flor et al., J. Neurochem. Vol. 67, pages 58-63 (1996) or by determination to what extent the agonist induced elevation of the inositol phosphate turnover is inhibited as described by T. Knoepfel et al., Eur. J. Pharmacol. Vol. 288, pages 389-392 (1994), L. P. Daggett et al., Neuropharm. Vol. […] and references cited therein. Isolation and expression of human mGluR subtypes are described in U.S. Pat. No. 5,521,297. Selected agents of the invention show IC50 values for the inhibition of the agonist (e.g. glutamate or quisqualate) induced elevation of intracellular Ca2+ concentration or the agonist (e.g. glutamate or quisqualate) induced inositol phosphate turnover, measured in recombinant cells expressing hmGluR5a of about 1 nM to about 50 μM.
Consider `O=C(c1cc2ccccc2o1)N1CCC(O)(C#Cc2cccc(Cl)c2)CC1` [Example 1.8, Benzofuran-2-yl-[4-(3-chloro-phenyl-ethynyl)-4-hydroxy-piperidin-1-yl]-methanone], for which the IC50 came out at 290 nM.

Another series concerns mice. The series can be described thus: stress-induced hyperthermia in mice. Format: in vivo. The settings on record: 10 mg/kg p.o.; control 0.93±0.1° C.; p<0.01. Here is the method: A. Lecci et al., Psychopharmacol 101, 255-261]. At doses of about 0.1 to about 30 mg/kg p.o., selected agents of the invention reverse the stress-induced hyperthermia.
In the case of `O=C(c1cc2ccccc2o1)N1CCC(O)(C#Cc2cccc(Cl)c2)CC1` [Example 1.8, Benzofuran-2-yl-[4-(3-chloro-phenyl-ethynyl)-4-hydroxy-piperidin-1-yl]-methanone], the stress-induced hyperthermia was determined as 0.44±0.08 °C.

The same series, now with this note: 30 mg/kg p.o.; control 0.93±0.1° C.; p<0.05.
In the case of `O=C(c1cc2ccccc2o1)N1CCC(O)(C#Cc2cccc(Cl)c2)CC1` [Example 1.8, Benzofuran-2-yl-[4-(3-chloro-phenyl-ethynyl)-4-hydroxy-piperidin-1-yl]-methanone], the stress-induced hyperthermia came out at 0.46±0.14 °C.

Still in this series, the particulars now being: 100 mg/kg p.o.; control 0.93±0.1° C.; p<0.001.
In turn, `O=C(c1cc2ccccc2o1)N1CCC(O)(C#Cc2cccc(Cl)c2)CC1` [Example 1.8, Benzofuran-2-yl-[4-(3-chloro-phenyl-ethynyl)-4-hydroxy-piperidin-1-yl]-methanone] came in with a stress-induced hyperthermia of 0.24±0.12 °C.

System in another series: not given
Test: not given
Details: not given
Turning to `O=C(c1ccoc1)N1CCC(O)(C#Cc2cccc(Cl)c2)CC1` [Example 1, [4-(3-Chloro-phenylethynyl)-4-hydroxy-piperidin-1-yl]-furan-3-yl-methanone], the melting point was in the range of 93 to 94 °C. In turn, `CN1CCC(C(=O)N2CCC(O)(C#Cc3cccc(Cl)c3)CC2)CC1` [Example 1.2, [4-(3-Chloro-phenylethynyl)-4-hydroxy-piperidin-1-yl]-(1-methyl-piperidin-4-yl)-methanone] registered a melting point of 134 to 136 °C. Still for that read-out and setting: the same measure for `O=C(c1ccno1)N1CCC(O)(C#Cc2cccc(Cl)c2)CC1` [Example 1.3, [4-(3-Chloro-phenylethynyl)-4-hydroxy-piperidin-1-yl]-isoxazol-5-yl-methanone]: 132 to 135 °C; for `O=C(c1ncc[nH]1)N1CCC(O)(C#Cc2cccc(Cl)c2)CC1` [Example 1.4, [4-(3-Chloro-phenylethynyl)-4-hydroxy-piperidin-1-yl]-(1H-imidazol-2-yl)-methanone]: 75 to 80 °C. The same measure, in the same setting: the same measure for `O=C(c1ccoc1)N1CCC(O)(C#Cc2cccc(F)c2)CC1` [Example 1.31, [4-(3-Fluoro-phenylethynyl)-4-hydroxy-piperidin-1-yl]-furan-3-yl-methanone]: 67 to 81 °C; for `O=C(c1ccoc1)N1CCC(O)(C#Cc2ccc(Cl)cc2)CC1` [Example 1.34, [4-(4-Chloro-phenylethynyl)-4-hydroxy-piperidin-1-yl]-furan-3-yl-methanone]: 124 to 134 °C; for `O=C(c1ccoc1)N1CCC(O)(C#Cc2ccc(F)cc2F)CC1` [Example 1.35, [4-(2,4-Difluoro-phenylethynyl)-4-hydroxy-piperidin-1-yl]-furan-3-yl-methanone]: 80 to 94 °C. The same measure, in the same setting: the same measure for `COc1cccc(C#CC2(O)CCN(C(=O)c3ccoc3)CC2)c1` [Example 1.36, Furan-3-yl-[4-hydroxy-4-(3-methoxy-phenylethynyl)-piperidin-1-yl]-methanone]: 83 to 85 °C.

`Cc1ccc(C)c(C#CC2(O)CCN(C(=O)c3ccoc3)CC2)c1` [Example 1.37, [4-(2,5-Dimethyl-phenylethynyl)-4-hydroxy-piperidin-1-yl]-furan-3-yl-methanone] displayed a melting point of 110 to 114 °C.

For the compound `O=C(c1ccncc1)N1CCC(O)(C#Cc2cccc(Cl)c2)CC1` [Example 1.52, [4-(3-Chloro-phenylethynyl)-4-hydroxy-piperidin-1-yl]-pyridin-4-yl-methanone], the melting point lay within 171 to 173 °C. Turning to `CC(C)c1ccc(N2CCC(O)(C#Cc3cccc(Cl)c3)CC2)cc1` [Example 1.128, 4-(3-Chloro-phenylethynyl)-1-(4-isopropyl-phenyl)-piperidin-4-ol], the melting point was 114 to 119 °C. `Cc1ccccc1N1CCC(O)(C#Cc2cccc(Cl)c2)CC1` [Example 1.137, 4-(3-Chloro-phenylethynyl)-1-o-tolyl-piperidin-4-ol] returned a melting point of 128 to 130 °C. On the same count and under the same terms, the same measure for `OC1(C#Cc2cccc(Cl)c2)CCN(c2cccnc2)CC1` [Example 1.138, 4-(3-Chloro-phenylethynyl)-3,4,5,6-tetrahydro-2H-[1,3]bipyridinyl-4-ol]: 124 to 128 °C; for `OC1(C#Cc2cccc(Cl)c2)CCN(c2cccc3nccnc23)CC1` [Example 1.139, 4-(3-Chloro-phenylethynyl)-1-quinoxalin-5-yl-piperidin-4-ol]: 68 to 70 °C; for `OC1(C#Cc2cccc(Cl)c2)CCN(c2nc3ccccc3s2)CC1` [Example 1.144, 1-Benzothiazol-2-yl-4-(3-chloro-phenylethynyl)-piperidin-4-ol]: 154 to 157 °C. Still for that read-out and setting: the same measure for `Cc1cccnc1N1CCC(O)(C#Cc2cccc(Cl)c2)CC1` [Example 1.148, 4-(3-Chloro-phenylethynyl)-3′-methyl-3,4,5,6-tetrahydro-2H-[1,2′]bipyridinyl-4-ol]: 134 to 138 °C. Still for that read-out and setting: the same measure for `OC1(C#Cc2cccc(Cl)c2)CCN(c2ccnc(Cl)c2)CC1` [Example 1.151, 2′-Chloro-4-(3-chloro-phenylethynyl)-3,4,5,6-tetrahydro-2H-[1,4′]bipyridinyl-4-ol]: 139 to 142 °C; for `OC1(C#Cc2cccc(Cl)c2)CCN(c2cncnc2)CC1` [Example 1.162, 4-(3-Chloro-phenylethynyl)-1-pyrimidin-5-yl-piperidin-4-ol]: 173 to 177 °C. In turn, `Cc1ncccc1N1CCC(O)(C#Cc2cccc(Cl)c2)CC1` [Example 1.164, 4-(3-Chloro-phenylethynyl)-2′-methyl-3,4,5,6-tetrahydro-2H-[1,3′]-bipyridinyl-4-ol] came in with a melting point of 98 to 102 °C. Compound `O=C(C1Oc2ccccc2O1)N1CCC(O)(C#Cc2cccc(Cl)c2)C1` (stereo not drawn) [Example 3.11, Benzo[1,3]dioxol-2-yl-[3-(3-chloro-phenylethynyl)-3-hydroxy-pyrrolidin-1-yl]-methanone] came in with a melting point of 153 to 155 °C.
